{
  "source": "paper PMC3161871",
  "about": "“Heteroarylketones inhibit astroglial interleukin-6 expression via a STAT3/NF-κB signaling pathway” (Journal of Neuroinflammation, 2011)",
  "key": {"[1]": {"tested_on": "IL-6 mRNA expression in U343 cells", "test": "OSM-induced IL-6 mRNA expression in U343 cells (qRT-PCR time course)", "type": "cell-based, human", "conditions": "100 ng/ml OSM", "experimental": "(§1) The human glioma cell line U343 [34] was maintained in DMEM containing 10% fetal bovine serum and 60 μg/ml gentamycin (Invitrogen, Darmstadt, Germany) at 37°C in a 10% CO2 atmosphere.\nTotal RNA of cultured cells and homogenized mouse brain tissue samples was isolated using RNA isolation kit \"NucleoSpin RNA II\" from Macherey and Nagel. RNA quantity was measured by spectrophotometrical quantification (NanoDrop 2000, Peqlab, Erlangen, Germany). Total RNA (0.5 μg) was transcribed to cDNA using Superscript III and oligo-dT primer (Invitrogen, Darmstadt, Germany). Quantitative real-time PCR was performed with QuantiFast SYBR Green PCR Master mix (Qiagen, Hilden, Germany) using Rotorgene 3000 system (Corbett, Sydney, Australia). Gene expression was normalized to the expression of three reference genes glyceraldehyde 3-phosphate dehydrogenase (GAPDH), glucose-6-phosphate dehydrogenase (G6PDH) and hypoxanthine-guanine phosphoribosyltransferase (HPRT). Primers for PREP (5'-[…]-3'; 5'- […]-3') and IL-6 (5'-AAAGGACGTCACATTGCA-3'; 5'-[…]-3') were designed using the Primer3 Software (http://frodo.wi.mit.edu/). Data were analyzed by Rotorgene 3000 Software version 6.0 by comparative quantitation. The appropriate size of PCR products was confirmed by gel-electrophoresis stained with ethidium bromide.\nTo analyze the time-course of OSM-induced IL-6 expression, U343 cells were incubated with OSM for different periods of time as indicated in figure 1B. Amounts of IL-6 mRNA and protein were subsequently quantified by qRT-PCR and by ELISA, respectively. […] Significant induction of IL-6 protein was detected in the conditioned medium as early as 3 h post stimulation and reaching a maximum at 24 h.\nTo reveal whether bioactivity of HAK compounds is based on suppression of IL-6 protein biosynthesis or on interference with IL-6 mRNA expression OSM-treated U343 cells were incubated with 20 μM of compound HAK-2 for different periods of time. […] Therefore, it is very likely that the relevant molecular target of HAK compounds is involved in the OSM-induced signal transduction process not earlier than 6 h after onset of the stimulation.\nFigure 4 Time course of OSM-induced IL-6 mRNA expression in U343 cells treated with compound HAK-2. […] U343 cells were stimulated with 100 ng/ml OSM and treated with 0.1% DMSO as solvent control (solid line, black triangle) or 20 μM HAK-2 (dashed line, white triangle). Samples were harvested at time points indicated to extract total RNA. IL-6 mRNA expression was analyzed by qRT-PCR. All data points are presented as mean ± SD, and were obtained from experiments carried out in quadruplicate. Statistical analysis were performed between control and HAK-2 samples from same time point. ns, not significant; ***p < 0.001."}, "[2]": {"tested_on": "IL-6 release from U343 cells", "test": "Dose-dependent stimulation of IL-6 release by OSM in U343 cells (ELISA)", "type": "cell-based, human", "conditions": "U343 cells treated 24 h with OSM, ELISA of conditioned medium", "experimental": "as §1\nMeasurements of IL-6 in conditioned medium and murine plasma samples were done by means of human- or murine-specific IL-6 Cytoset kits (Invitrogen, Darmstadt, Germany) according to manufacturer's protocols.\nThe dose- and time-dependent stimulation of IL-6 expression by OSM in U343 cells is characterized in figure 1. To analyze dose dependence of IL-6 release, U343 cells were treated for 24 hours with various concentrations of OSM followed by measurement of IL-6 protein concentrations in the conditioned medium by a specific ELISA. […] Therefore, all further investigations were performed with 100 ng/ml OSM. The highest dose of 200 ng/ml OSM led to 30-fold increase of IL-6 accumulation in the conditioned media in comparison to vehicle-treated cells.\nFigure 1 OSM induces dose- and time-dependent IL-6 expression in human U343 glioma cells. OSM treatment leads to dose-dependent IL-6 release (A). U343 cells were stimulated with different concentrations of OSM as indicated. After 24 hours the conditioned medium was analyzed by IL-6-specific ELISA. […] IL-6 mRNA expression was analyzed by qRT-PCR (dotted line, black triangles) and IL-6 protein release by ELISA (solid line, black squares). […]"}},
  "data": [
    {"substance": "Oncostatin M [OSM, reference compound]", "values": [
      {"measurement": "IL-6 mRNA induction, first peak", "setting": "[1]; 1 h post stimulation", "result": 6.5, "unit": "fold"},
      {"measurement": "IL-6 mRNA induction, second peak", "setting": "[1]; 16 h post stimulation", "result": 5.5, "unit": "fold"},
      {"measurement": "EC50 of IL-6 release", "setting": "[2]", "result": "0.0705 ± 0.02268", "unit": "µg/mL"}
    ]}
  ]
}
